From the supplement of paper PMC10307832

Key:
Assay in all cases: relative viability (nuclei count vs DMSO), 5 days (fraction); higher = more cells survive
[1] = compound: Cn1cncc1[C@@](N)(c1ccc(Cl)cc1)c1ccc2c(c1)c(-c1cccc(Cl)c1)cc(=O)n2C [Tipifarnib] + Nc1nc2[nH]cc(CCc3ccc(C(=O)N[C@@H](CCC(=O)O)C(=O)O)cc3)c2c(=O)[nH]1 [Pemetrexed] (partner 0.2 µM)
Summary of the method: (§1)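 Nuclei were stained with Hoechst during a one-step fixation (final 0.05% Triton X-100, 1% formaldehyde, 1 ug/ml Hoechst) carried out 5 days after dosing, then counted on 4× images. The cells, lung cancer lines in 1536-well plates, had been dosed by pin tool the day after seeding with one drug alone or a fixed anchor-drug dose plus five library-drug doses (not always all listed) in √10 steps. Relative viability is the nuclei count in treated wells divided by that in vehicle wells, and each value is the median of duplicate plates.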

[2] = compound: Cn1cncc1[C@@](N)(c1ccc(Cl)cc1)c1ccc2c(c1)c(-c1cccc(Cl)c1)cc(=O)n2C [Tipifarnib] + Cc1nc(Nc2ncc(C(=O)Nc3c(C)cccc3Cl)s2)cc(N2CCN(CCO)CC2)n1 [Dasatinib] (partner 0.075 µM)
Summary of the method: as §1

[3] = compound: Cn1cncc1[C@@](N)(c1ccc(Cl)cc1)c1ccc2c(c1)c(-c1cccc(Cl)c1)cc(=O)n2C [Tipifarnib] + CS(=O)(=O)CCNCc1ccc(-c2ccc3ncnc(Nc4ccc(OCc5cccc(F)c5)c(Cl)c4)c3c2)o1 [Lapatinib] (partner 2 µM)
Summary of the method: as §1

[4] = compound: Cn1cncc1[C@@](N)(c1ccc(Cl)cc1)c1ccc2c(c1)c(-c1cccc(Cl)c1)cc(=O)n2C [Tipifarnib] + C[C@@H](Oc1cc(-c2cnn(C3CCNCC3)c2)cnc1N)c1c(Cl)ccc(F)c1Cl [Crizotinib] (partner 1 µM)
Summary of the method: as §1

Cell Line	relative viability ([1]; first compound 0.01 µM)	relative viability ([1]; first compound 0.03162 µM)	relative viability ([1]; first compound 0.1 µM)	relative viability ([1]; first compound 0.3162 µM)	relative viability ([1]; first compound 1 µM)	relative viability ([2]; first compound 0.01 µM)	relative viability ([2]; first compound 0.03162 µM)	relative viability ([2]; first compound 0.1 µM)	relative viability ([2]; first compound 0.3162 µM)	relative viability ([2]; first compound 1 µM)	relative viability ([3]; first compound 0.01 µM)	relative viability ([3]; first compound 0.03162 µM)	relative viability ([3]; first compound 0.1 µM)	relative viability ([3]; first compound 0.3162 µM)	relative viability ([3]; first compound 1 µM)	relative viability ([4]; first compound 0.01 µM)	relative viability ([4]; first compound 0.03162 µM)	relative viability ([4]; first compound 0.1 µM)	relative viability ([4]; first compound 0.3162 µM)	relative viability ([4]; first compound 1 µM)
LXF-289	0.849	0.884	0.835	0.759	0.526	0.218	0.237	0.249	0.217	0.0926	0.88	0.865	0.855	0.787	0.708	0.769	0.759	0.715	0.694	0.64
CAL-12T	1.2	1.09	0.741	0.472	0.62	0.256	0.287	0.519	0.198	0.18	0.709	0.716	0.619	0.525	0.393	0.567	0.387	0.334	0.173	0.228
COR-L23	0.215	0.205	0.195	0.206	0.188	0.59	0.406	0.365	0.264	0.2	0.942	0.641	0.739	0.582	0.4	0.731	0.341	0.3	0.248	0.386
NCI-H1755	0.41	0.524	0.446	0.474	0.425	0.477	0.39	0.365	0.348	0.271	1.03	0.988	0.981	0.906	0.507	0.83	0.79	0.818	0.742	0.688
NCI-H1437	0.32	0.344	0.322	0.285	0.297	0.446	0.482	0.452	0.416	0.214	0.873	0.864	0.738	0.727	0.248	0.978	0.959	1	0.763	0.894
NCI-H2085	0.874	0.677	0.693	0.525	0.539	0.296	0.264	0.262	0.25	0.288	0.846	0.659	0.633	0.523	0.533	0.685	0.446	0.433	0.414	0.469
H3255	0.674	0.543	0.562	0.541	0.499	0.3	0.375	0.421	0.463	0.344	0.249	0.3	0.27	0.232	0.214	0.834	0.9	0.708	0.519	0.543
NCI-H650	1.02	0.917	0.846	0.626	0.36	0.421	0.375	0.366	0.284	0.266	0.719	0.837	0.599	0.434	0.345	0.773	0.679	0.442	0.437	0.345
LOU-NH91	0.347	0.409	0.412	0.408	0.459	0.53	0.505	0.507	0.451	0.338	0.794	0.658	0.675	0.669	0.499	0.741	0.752	0.695	0.619	0.646
NCI-H1650	0.427	0.379	0.329	0.271	0.278	0.274	0.254	0.24	0.22	0.202	0.687	0.643	0.486	0.376	0.211	0.47	0.454	0.401	0.324	0.337
NCI-H3122	0.205	0.204	0.199	0.188	0.188	0.63	0.456	0.644	0.327	0.138	1.01	0.917	0.961	0.73	0.811	0.281	0.217	0.249	0.256	0.254
PC-3 [JPC-3]	1	1.11	0.592	0.448	0.42	1.01	0.994	0.99	0.679	0.532	0.461	0.489	0.431	0.38	0.311	1.04	0.928	0.88	0.828	0.709
NCI-H1651	0.592	0.636	0.676	0.635	0.522	0.474	0.209	0.389	0.363	0.196	0.931	0.799	0.919	0.85	0.426	0.951	0.856	0.893	0.789	0.843
NCI-H2087	0.58	0.569	0.383	0.326	0.373	0.764	0.405	0.289	0.264	0.21	0.934	0.493	0.475	0.404	0.344	0.529	0.534	0.268	0.438	0.377
